Test results from patent publication US20130196937A1, “AGE PRODUCTION INHIBITOR” (ORYZA OIL & FAT CHEMICAL CO., LTD., priority 2010, published 2013).
Like-named read-outs stand apart in the source and are kept apart here. Marks after values point to notes of the source that are not given here. Each block holds one molecule with its values, some of them ahead of it.

Key:
AGE production = assay: Test 1: AGE production inhibition (D-glucose + bovine serum albumin, fluorescence); assay type: biochemical
Experimental: Put the sample solution ([…]) of the concentration of cherry-blossom extract (Example 1) and cherry-leaf extract (Example 2), as shown in the chart, below, into a phosphate buffer solution (pH: […]) containing D-glucose (10%) and into bovine serum albumin (fraction 5.1%) and leave it out at a temperature of 60 degrees centigrade for two days. Dilute the reaction solution with distilled water until the intensity of fluorescent light reaches about 500, thus determining its intensity (measurement wavelength: […]). Also, the extract is to be diluted with distilled water, and the substance, after being dissolved in DMSO (dimethyl sulphoxide), is to be diluted with a phosphate buffer solution until DMSO concentration is of 1%. Each value in Chart 1 indicates an average value with standard error of the three examples. Asterisks (*, **) mean a significant difference (i.e. *: p<0.05; **: p<0.01) between the processed samples and the unprocessed samples as determined by Dunnett's Multiple Comparison Test.

[1] = test system: normal diploid fibroblast (PDL22-32 cells); assay: Test 2-2: fibroblast apoptosis caused by CML-collagen (Caspase Assay), extracts and substances; assay type: cell-based, human
Experimental: 50 mg of 1 mM HCL was added to 25 mL of bovine skin-derived collagen and dissolved for two hours incubation at the temperature of 37 degrees centigrade, and was shaken as needed. Then, PBS (pH7.4 25 mL) was added to sodium cyanoborohydride (1.42 g) and to glyoxylic acid (0.9 g) and mixed so as to react at the temperature of 37 degrees centigrade for 24 hours. The reaction solution was then put into a dialysis cell of 10,000 molecular mass for a dialysis-with-water test to be conducted for one day and for a dialysis-with-PBS to be conducted for six days. CML-collagen (21 mg) was obtained by freeze-drying the dialysate.
The fibroblast (7×10^4 cells) was suspended in the D-MEM medium containing FCS (0.5%), penicillin (100 units/mL) and streptomycin ([…]) to be seeded within 96-well plates ([…]). After 24 hours of culture, the dissolved CML-collagen solution (2 mg·mL) and the sample solution ([…]) were added to the medium and cultured for 24 hours. Collagen, instead of CML-collagen, was added to Normal group.
The rate of cell survival was measured by MIT Assay. The result is shown in Chart 2. At the same time, a microscopic test was done, of which the result of formazan formation of fibroblast (×100) is shown in FIG. 2. Apoptosis was identified by measuring active caspase-3/7 by the fluorescence method, of which the result is shown in Chart 3, below. Each value of Charts 2 and 3 is indicated by the average value with standard error of the six examples. Asterisks (*, **) mean a significant difference (i.e. *: p<0.05; **: p<0.01) between the unprocessed samples and Dunnett's multiple comparison test, and f represents p<0.05 by Fisher's PLSD Test.
Here, in Test 2-2, respecting the cherry-blossom extract (Example 1), and the cherry-leaf extract (Example 2) and the seven substances contained in the cherry-blossom extract (Example 1): 1-O-(E)-Caffeoyl-β-D-glucopyranoside, 1-O-(E)-Coumaroyl-β-D-Glucopyranosideand, 1-O-(E)-Cinnamoyl-β-D-glucopyranoside, Kaempferol 3-O-3-D-glucopyranoside, Quercetin 3-O-β-D-glucopyranoside, Kaempferol 3-O-(6″-malony)-β-D-glucopyranoside and Quercetin 3-O-(6″-malony)-β-D-glucopyranoside (Examples 3 to 9), the activity against fibroblast apoptosis, caused by CML-collagen, was identified in the same way as in Test 2-1.
Also, in Test 2-2, PDL22-32 cells were used as the normal diploid fibroblast. As a target for comparison, aminoguanidine hydrochloride which is a medicine for the glycation inhibitor was examined in the same way. Each value of Chart 4 indicates an average value with standard error of the five examples. Asterisks (*, **) mean a significant difference (i.e. *: p<0.05; **: p<0.01) between processed samples and unprocessed samples with CML-collagen, determined by Dunnett's Multiple Comparison Test.

IC50 of AGE production inhibition (AGE production): 78 µg/mL
Structure (SMILES): O=C(O)CC(=O)OCC1O[C@@H](Oc2c(-c3ccc(O)cc3)oc3cc(O)cc(O)c3c2=O)C(O)C(O)[C@@H]1O (stereo partly drawn) [Kaempferol 3-O-(6″-malony)-β-D-glucopyranoside]
Inhibition Ratio (%) of AGE production (AGE production; 1 μg/mL): −5.0 ± 0.1%
Inhibition Ratio (%) of AGE production (AGE production; 3 μg/mL): −8.5 ± 0.1%
Inhibition Ratio (%) of AGE production (AGE production; 10 μg/mL): 0.2 ± 0.1%
Inhibition Ratio (%) of AGE production (AGE production; 30 μg/mL): 20.5 ± 0.3** %
Inhibition Ratio (%) of AGE production (AGE production; 100 μg/mL): 50.8 ± 0.4** %
Inhibition Ratio (%) of AGE production (AGE production; 300 μg/mL): 91.7 ± 1.7** %
inhibitory activity against apoptosis caused by CML-collagen, result in words [1]: relatively weak activity
Inhibition Ratio (%) of fibroblast apoptosis (Caspase Assay) ([1]; 1 μg/mL): −18.9 ± 0.6%
Inhibition Ratio (%) of fibroblast apoptosis (Caspase Assay) ([1]; 3 μg/mL): −17.3 ± 0.6%
Inhibition Ratio (%) of fibroblast apoptosis (Caspase Assay) ([1]; 10 μg/mL): 10.5 ± 0.5%

IC50 of AGE production inhibition (AGE production): 102 µg/mL
Structure (SMILES): O=c1c(O[C@@H]2O[C@H](CO)[C@@H](O)[C@H](O)[C@H]2O)c(-c2ccc(O)cc2)oc2cc(O)cc(O)c12 [Kaempferol 3-O-β-D-glucopyranoside]
Inhibition Ratio (%) of AGE production (AGE production; 1 μg/mL): −8.4 ± 0.1** %
Inhibition Ratio (%) of AGE production (AGE production; 3 μg/mL): −9.1 ± 0.2** %
Inhibition Ratio (%) of AGE production (AGE production; 10 μg/mL): −2.0 ± 0.1%
Inhibition Ratio (%) of AGE production (AGE production; 30 μg/mL): 19.4 ± 0.1** %
Inhibition Ratio (%) of AGE production (AGE production; 100 μg/mL): 45.0 ± 0.5** %
Inhibition Ratio (%) of AGE production (AGE production; 300 μg/mL): 80.3 ± 0.7** %
inhibitory activity against apoptosis caused by CML-collagen, result in words [1]: especially strong inhibitory activity
Inhibition Ratio (%) of fibroblast apoptosis (Caspase Assay) ([1]; 1 μg/mL): −0.7 ± 0.1%
Inhibition Ratio (%) of fibroblast apoptosis (Caspase Assay) ([1]; 3 μg/mL): 27.9 ± 1.1%
Inhibition Ratio (%) of fibroblast apoptosis (Caspase Assay) ([1]; 10 μg/mL): 100.7 ± 4.2%
inhibitory activity against apoptosis caused by CML-collagen, result in words ([1]; listed as Example 6): strong inhibitory activity

IC50 of AGE production inhibition (AGE production): 36 µg/mL
Structure (SMILES): O=C(O)CC(=O)OCC1O[C@@H](Oc2c(-c3ccc(O)c(O)c3)oc3cc(O)cc(O)c3c2=O)C(O)C(O)[C@@H]1O (stereo partly drawn) [Quercetin 3-O-(6″-malony)-β-D-glucopyranoside]
Inhibition Ratio (%) of AGE production (AGE production; 1 μg/mL): −10.4 ± 0.9%
Inhibition Ratio (%) of AGE production (AGE production; 3 μg/mL): 1.9 ± 0.1%
Inhibition Ratio (%) of AGE production (AGE production; 10 μg/mL): 20.4 ± 0.3** %
Inhibition Ratio (%) of AGE production (AGE production; 30 μg/mL): 43.7 ± 0.7** %
Inhibition Ratio (%) of AGE production (AGE production; 100 μg/mL): 74.6 ± 0.7** %
Inhibition Ratio (%) of AGE production (AGE production; 300 μg/mL): 103.9 ± 3.6** %
inhibitory activity against apoptosis caused by CML-collagen, result in words [1]: strong inhibitory activity
Inhibition Ratio (%) of fibroblast apoptosis (Caspase Assay) ([1]; 1 μg/mL): 21.8 ± 0.7%
Inhibition Ratio (%) of fibroblast apoptosis (Caspase Assay) ([1]; 3 μg/mL): 36.6 ± 1.4%
Inhibition Ratio (%) of fibroblast apoptosis (Caspase Assay) ([1]; 10 μg/mL): 98.4 ± 4.4* %

IC50 of AGE production inhibition (AGE production): 30 µg/mL
Structure (SMILES): O=c1c(O[C@@H]2O[C@H](CO)[C@@H](O)[C@H](O)[C@H]2O)c(-c2ccc(O)c(O)c2)oc2cc(O)cc(O)c12 [Quercetin 3-O-β-D-glucopyranoside]
Inhibition Ratio (%) of AGE production (AGE production; 1 μg/mL): 8.5 ± 0.1** %
Inhibition Ratio (%) of AGE production (AGE production; 3 μg/mL): 6.5 ± 0.1* %
Inhibition Ratio (%) of AGE production (AGE production; 10 μg/mL): 27.6 ± 0.5** %
Inhibition Ratio (%) of AGE production (AGE production; 30 μg/mL): 49.8 ± 0.7** %
Inhibition Ratio (%) of AGE production (AGE production; 100 μg/mL): 74.2 ± 1.1** %
Inhibition Ratio (%) of AGE production (AGE production; 300 μg/mL): 100.8 ± 0.6** %
inhibitory activity against apoptosis caused by CML-collagen, result in words [1]: strongest inhibitory activity
Inhibition Ratio (%) of fibroblast apoptosis (Caspase Assay) ([1]; 1 μg/mL): 44.2 ± 1.5* %
Inhibition Ratio (%) of fibroblast apoptosis (Caspase Assay) ([1]; 3 μg/mL): 39.0 ± 1.1* %
Inhibition Ratio (%) of fibroblast apoptosis (Caspase Assay) ([1]; 10 μg/mL): 121.5 ± 5.4** %
